What was measured:
Type in all cases: cell-based
Nav 1.7 [1] = target: T1, Nav 1.7 (Homo sapiens (Human), UniProt Q15858); assay: Nav 1.7 in vitro assay, IonWorks Quattro (IWQ) population patch-clamp; conditions: HEK 293 cells stably transfected with Nav 1.7; 26th pulse to -20 mV
Nav 1.7 [2] = target: T1, Nav 1.7; assay: Nav 1.7 in vitro PX assay, PatchXpress whole cell voltage clamp; conditions: HEK 293 cells stably transfected with human Nav1.7; partially inactivated state (20 to 50% inactivation)
How it was run: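 Partially inactivated channels (20–50% inactivation at holding potential) were probed on automated patch clamp in stably transfected HEK293 cells, stepping to −10 mV for 20 msec every 10 s (0.1 Hz).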

Nav 1.5 = Nav 1.5 (Homo sapiens (Human), UniProt Q14524); assay: Nav 1.5 in vitro assay, IonWorks Quattro (IWQ) population patch-clamp; conditions: HEK 293 cells stably transfected with Nav 1.5; 26th pulse to -20 mV
Chain of Nav 1.5 (Q14524 whole entry): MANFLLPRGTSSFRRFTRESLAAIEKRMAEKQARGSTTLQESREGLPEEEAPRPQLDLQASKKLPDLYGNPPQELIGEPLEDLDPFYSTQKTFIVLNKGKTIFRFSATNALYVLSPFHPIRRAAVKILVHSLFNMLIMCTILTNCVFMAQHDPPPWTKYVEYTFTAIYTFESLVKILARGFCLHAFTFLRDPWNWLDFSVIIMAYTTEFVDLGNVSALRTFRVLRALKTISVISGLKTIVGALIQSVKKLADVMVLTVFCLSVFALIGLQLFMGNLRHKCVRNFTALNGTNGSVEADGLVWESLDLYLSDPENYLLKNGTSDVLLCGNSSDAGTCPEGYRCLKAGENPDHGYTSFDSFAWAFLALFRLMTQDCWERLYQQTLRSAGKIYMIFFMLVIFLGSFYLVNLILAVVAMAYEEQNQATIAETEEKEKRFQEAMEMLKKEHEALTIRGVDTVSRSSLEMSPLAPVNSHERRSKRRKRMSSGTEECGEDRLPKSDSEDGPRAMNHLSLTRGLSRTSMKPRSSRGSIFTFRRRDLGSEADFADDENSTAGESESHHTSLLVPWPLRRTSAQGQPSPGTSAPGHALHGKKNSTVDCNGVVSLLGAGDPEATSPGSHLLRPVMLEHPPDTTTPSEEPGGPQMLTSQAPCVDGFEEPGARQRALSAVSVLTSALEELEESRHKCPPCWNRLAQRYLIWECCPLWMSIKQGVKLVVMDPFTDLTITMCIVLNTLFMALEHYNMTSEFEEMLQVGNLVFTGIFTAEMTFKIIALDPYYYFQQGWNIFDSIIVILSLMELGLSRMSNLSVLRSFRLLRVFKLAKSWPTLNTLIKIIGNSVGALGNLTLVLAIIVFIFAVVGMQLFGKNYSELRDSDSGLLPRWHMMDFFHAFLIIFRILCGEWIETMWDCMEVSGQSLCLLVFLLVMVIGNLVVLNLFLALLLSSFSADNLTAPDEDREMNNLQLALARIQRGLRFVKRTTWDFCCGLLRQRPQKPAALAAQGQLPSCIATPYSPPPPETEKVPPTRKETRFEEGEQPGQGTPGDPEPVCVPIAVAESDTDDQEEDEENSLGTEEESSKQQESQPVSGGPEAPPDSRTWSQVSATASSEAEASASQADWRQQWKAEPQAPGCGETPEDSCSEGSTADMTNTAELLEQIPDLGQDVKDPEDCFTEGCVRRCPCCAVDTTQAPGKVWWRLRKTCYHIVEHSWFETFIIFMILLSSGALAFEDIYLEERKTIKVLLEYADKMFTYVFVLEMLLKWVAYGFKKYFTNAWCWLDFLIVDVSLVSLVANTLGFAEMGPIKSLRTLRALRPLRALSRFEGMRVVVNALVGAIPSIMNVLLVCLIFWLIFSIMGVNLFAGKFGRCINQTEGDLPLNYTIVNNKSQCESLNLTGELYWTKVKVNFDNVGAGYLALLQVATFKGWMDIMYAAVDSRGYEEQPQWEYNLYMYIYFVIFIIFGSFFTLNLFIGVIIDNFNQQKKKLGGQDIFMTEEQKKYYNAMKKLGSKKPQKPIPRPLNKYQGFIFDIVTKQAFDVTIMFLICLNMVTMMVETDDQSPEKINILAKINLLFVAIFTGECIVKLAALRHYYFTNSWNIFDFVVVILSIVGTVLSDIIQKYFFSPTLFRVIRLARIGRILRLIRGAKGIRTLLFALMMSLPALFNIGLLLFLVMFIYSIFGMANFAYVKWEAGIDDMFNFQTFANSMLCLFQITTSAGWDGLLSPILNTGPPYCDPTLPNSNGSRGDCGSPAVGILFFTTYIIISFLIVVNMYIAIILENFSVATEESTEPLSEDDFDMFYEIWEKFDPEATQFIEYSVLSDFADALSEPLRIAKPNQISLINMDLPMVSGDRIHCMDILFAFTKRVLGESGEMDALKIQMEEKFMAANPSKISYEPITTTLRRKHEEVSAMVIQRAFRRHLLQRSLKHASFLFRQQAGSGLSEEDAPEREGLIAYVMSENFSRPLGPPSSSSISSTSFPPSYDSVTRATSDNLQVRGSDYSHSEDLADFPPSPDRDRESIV

T1 sequence (Q15858 whole entry): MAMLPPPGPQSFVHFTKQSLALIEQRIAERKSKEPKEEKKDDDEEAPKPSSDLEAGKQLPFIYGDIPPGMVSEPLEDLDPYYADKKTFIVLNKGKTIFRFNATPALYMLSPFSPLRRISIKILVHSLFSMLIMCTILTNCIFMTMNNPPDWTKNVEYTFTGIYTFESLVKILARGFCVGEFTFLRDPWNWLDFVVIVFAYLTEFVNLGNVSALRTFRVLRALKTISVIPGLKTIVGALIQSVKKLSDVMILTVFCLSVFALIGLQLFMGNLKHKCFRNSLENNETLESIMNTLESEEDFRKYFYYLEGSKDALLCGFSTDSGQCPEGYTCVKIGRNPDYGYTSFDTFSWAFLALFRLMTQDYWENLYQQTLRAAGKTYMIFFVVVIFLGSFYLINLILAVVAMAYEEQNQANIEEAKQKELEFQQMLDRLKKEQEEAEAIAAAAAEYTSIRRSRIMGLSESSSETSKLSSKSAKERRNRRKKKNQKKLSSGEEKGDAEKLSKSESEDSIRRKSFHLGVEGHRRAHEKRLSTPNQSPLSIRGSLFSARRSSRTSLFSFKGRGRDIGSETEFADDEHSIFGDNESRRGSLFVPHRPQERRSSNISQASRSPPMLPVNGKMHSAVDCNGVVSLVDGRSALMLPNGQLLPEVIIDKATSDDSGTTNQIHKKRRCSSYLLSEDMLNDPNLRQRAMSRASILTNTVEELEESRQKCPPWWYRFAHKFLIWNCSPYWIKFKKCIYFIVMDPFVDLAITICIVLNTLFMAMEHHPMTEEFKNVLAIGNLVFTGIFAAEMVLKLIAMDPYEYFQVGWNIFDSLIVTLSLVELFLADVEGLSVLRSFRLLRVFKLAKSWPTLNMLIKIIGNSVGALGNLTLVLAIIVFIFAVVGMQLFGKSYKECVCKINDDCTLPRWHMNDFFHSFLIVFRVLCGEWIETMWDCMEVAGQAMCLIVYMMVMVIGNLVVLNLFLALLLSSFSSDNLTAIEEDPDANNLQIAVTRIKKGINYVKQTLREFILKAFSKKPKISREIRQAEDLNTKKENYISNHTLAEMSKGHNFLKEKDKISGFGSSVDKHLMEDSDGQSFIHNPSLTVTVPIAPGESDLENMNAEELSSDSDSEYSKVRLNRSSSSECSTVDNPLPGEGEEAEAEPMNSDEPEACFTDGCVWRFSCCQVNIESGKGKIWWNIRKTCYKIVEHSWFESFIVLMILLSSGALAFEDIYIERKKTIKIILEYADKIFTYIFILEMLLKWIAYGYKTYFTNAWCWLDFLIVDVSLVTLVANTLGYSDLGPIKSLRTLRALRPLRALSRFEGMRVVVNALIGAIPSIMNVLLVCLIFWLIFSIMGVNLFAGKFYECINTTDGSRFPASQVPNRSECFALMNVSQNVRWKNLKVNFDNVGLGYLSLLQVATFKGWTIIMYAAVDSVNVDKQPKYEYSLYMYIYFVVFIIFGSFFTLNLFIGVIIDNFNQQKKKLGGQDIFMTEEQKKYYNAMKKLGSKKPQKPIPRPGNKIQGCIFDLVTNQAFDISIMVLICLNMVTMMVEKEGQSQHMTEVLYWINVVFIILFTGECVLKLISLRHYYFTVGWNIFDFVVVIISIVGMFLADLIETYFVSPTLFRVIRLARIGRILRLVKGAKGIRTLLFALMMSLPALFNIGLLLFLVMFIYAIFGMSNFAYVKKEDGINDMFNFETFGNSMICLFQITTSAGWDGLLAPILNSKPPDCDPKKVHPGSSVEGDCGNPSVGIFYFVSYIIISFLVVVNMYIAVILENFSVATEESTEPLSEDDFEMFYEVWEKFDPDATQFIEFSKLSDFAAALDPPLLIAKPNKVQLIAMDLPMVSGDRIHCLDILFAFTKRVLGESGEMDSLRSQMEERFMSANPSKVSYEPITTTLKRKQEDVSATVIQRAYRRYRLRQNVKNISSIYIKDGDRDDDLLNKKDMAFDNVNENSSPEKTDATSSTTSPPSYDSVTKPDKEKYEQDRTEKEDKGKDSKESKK

IC50 (Nav 1.7 [1])	IC50 (Nav 1.7 [2])	SMILES	IC50 (Nav 1.5)
700 nM	3750 nM	O=S(=O)(Nc1nccs1)c1ccc2c(c1)OCCN2c1ccccc1 [Example 165, 4-phenyl-N-(thiazol-2-yl)-3,4-dihydro-2H-benzo[b][1,4]oxazine-7-sulfonamide]	> 10000 nM
177 nM	3320 nM	O=S(=O)(Nc1nccs1)c1ccc2c(c1)OCCN2c1ccc(C(F)(F)F)cn1 [Example 183, N-(Thiazol-2-Yl)-4-(5-(Trifluoromethyl)Pyridin-2-Yl)-3,4-Dihydro-2H-Benzo[B][1,4]Oxazine-7-Sulfonamide]	> 10000 nM
660 nM	18100 nM	COc1ccc(N2CCOc3cc(S(=O)(=O)Nc4nccs4)ccc32)cc1C#N [Example 118, 4-(3-Cyano-4-methoxyphenyl)-N-(thiazol-2-yl)-3,4-dihydro-2H-benzo[b][1,4]oxazine-7-sulfonamide]	> 10000 nM
3210 nM	12600 nM	O=S(=O)(Nc1cscn1)c1ccc2c(c1)OCCN2c1ccc(C(F)(F)F)cc1Cl [Example 11, 4-(2-Chloro-4-(Trifluoromethyl)Phenyl)-N-(Thiazol-4-Yl)-3,4-Dihydro-2H-Benzo[B][1,4]Oxazine-7-Sulfonamide]	> 10000 nM
104 nM	850 nM	O=S(=O)(Nc1nccs1)c1ccc2c(c1)OCCN2c1cc(Cl)ccc1Cl [Example 180, 4-(2,5-Dichlorophenyl)-N-(Thiazol-2-Yl)-3,4-Dihydro-2H-Benzo[B][1,4]Oxazine-7-Sulfonamide 2,2,2-Trifluoroacetate]	6940 nM
225 nM	2550 nM	N#Cc1ccccc1N1CCOc2cc(S(=O)(=O)Nc3nccs3)ccc21 [Example 58, 4-(2-Cyanophenyl)-N-(Thiazol-2-Yl)-3,4-Dihydro-2H-Benzo[B][1,4]Oxazine-7-Sulfonamide 2,2,2-Trifluoroacetate]	6300 nM
14 nM	68.7 nM	CN1CC=C(c2cc(C(F)(F)F)ccc2N2CCOc3cc(S(=O)(=O)Nc4nccs4)ccc32)CC1 [Example 44, 4-(2-(1-Methyl-1,2,3,6-Tetrahydropyridin-4-Yl)-4-(Trifluoromethyl)Phenyl)-N-(Thiazol-2-Yl)-3,4-Dihydro-2H-Benzo[B][1,4]Oxazine-7-Sulfonamide]	3590 nM
129 nM	678 nM	Cc1ccc(Cl)cc1N1CCOc2cc(S(=O)(=O)Nc3nccs3)ccc21 [Example 178, 4-(5-Chloro-2-Methylphenyl)-N-(Thiazol-2-Yl)-3,4-Dihydro-2H-Benzo[B][1,4]Oxazine-7-Sulfonamide 2,2,2-Trifluoroacetate]	5600 nM
2280 nM	2600 nM	Cc1cc(N2CCOc3cc(S(=O)(=O)Nc4nccs4)ccc32)ccc1Cl [Example 156, 4-(4-Chloro-3-Methylphenyl)-N-(Thiazol-2-Yl)-3,4-Dihydro-2H-Benzo[B][1,4]Oxazine-7-Sulfonamide 2,2,2-Trifluoroacetate]	3930 nM
4.4 nM	23.7 nM	O=S(=O)(Nc1ncns1)c1ccc2c(c1)OCCN2c1ccc(C(F)(F)F)cc1C1=CCNCC1 [Example 7, 4-(2-(1,2,3,6-Tetrahydropyridin-4-Yl)-4-(Trifluoromethyl)Phenyl)-N-(1,2,4-Thiadiazol-5-Yl)-3,4-Dihydro-2H-Benzo[B][1,4]Oxazine-7-Sulfonamide]	349 nM
1070 nM	4720 nM	O=S(=O)(Nc1nccs1)c1ccc2c(c1)OCCN2c1ccc(OC(F)(F)C(F)F)cc1 [Example 123, 4-(4-(1,1,2,2-Tetrafluoroethoxy)phenyl)-N-(thiazol-2-yl)-3,4-dihydro-2H-benzo[b][1,4]oxazine-7-sulfonamide]	5810 nM

SMILES	IC50 (Nav 1.7 [1])	IC50 (Nav 1.7 [2])	IC50 (Nav 1.5)
O=S(=O)(Nc1nccs1)c1ccc2c(c1)OCCN2c1ccc(C(F)(F)F)cc1C[C@@H](O)CO (single isomer, unassigned) [Example 209]	12.5 nM	165 nM	497 nM

Reference: patent US9346798B2, “Dihydrobenzoxazine and tetrahydroquinoxaline sodium channel inhibitors” (AMGEN INC., priority 2012, dated 2016)
